Measured values: ChEMBL document CHEMBL1201862, “PubChem BioAssay data set” (2004)
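Cultured in 96-well plates, cells were exposed to test compound for 48 hours across five concentrations. GI50 = concentration required for 50% inhibition of growth.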 The source made the active and inactive calls. Cut-off read from the data, not from the text of the source: active = GI50 up to about 1.1 µM and inactive = higher.

What was measured:
Test in all cases: inhibition of tumour cell growth, NCI panel, 48 h
BT-549 = tested on: BT-549
CAKI-1 = tested on: CAKI-1
COLO 205 = tested on: COLO 205
DU-145 = tested on: DU-145
EKVX = tested on: EKVX
HCC 2998 = tested on: HCC 2998
HCT-15 = tested on: HCT-15
HOP-62 = tested on: HOP-62
IGROV-1 = tested on: IGROV-1
K562 = tested on: K562
MDA-MB-231 = tested on: MDA-MB-231
MDA-N = tested on: MDA-N
NCI-H23 = tested on: NCI-H23
OVCAR-8 = tested on: OVCAR-8
SK-MEL-28 = tested on: SK-MEL-28
SK-MEL-2 = tested on: SK-MEL-2
SW-620 = tested on: SW-620
T47D = tested on: T47D
U-251 = tested on: U-251
MOLT-4 = tested on: MOLT-4

In the case of `COC(=O)[C@]12CSC[C@H]1C[C@H](c1ccc(N(C)C)cc1)N2`, the GI50 (BT-549) is reported as > 100 µM (inactive), the GI50 (CAKI-1) is reported as > 100 µM (inactive) and the GI50 (COLO 205) is reported as > 100 µM (inactive). The GI50 (DU-145) was > 100 µM (inactive), the GI50 (EKVX) was > 73.3 µM (inactive) and the GI50 (HCC 2998) was > 100 µM (inactive). For the same compound, the GI50 (HCT-15) was greater than 100 µM, the GI50 (HOP-62) was > 100 µM (inactive) and the GI50 (IGROV-1) was > 100 µM (inactive). For the same compound, the GI50 (K562) was > 100 µM (inactive), the GI50 (MDA-MB-231) was > 100 µM (inactive) and the GI50 (MDA-N) was > 62.2 µM (inactive). For the same compound, the GI50 (NCI-H23) was > 100 µM (inactive), the GI50 (OVCAR-8) was > 100 µM (inactive) and the GI50 (SK-MEL-28) was > 100 µM (inactive). The GI50 (SK-MEL-2) was > 100 µM (inactive), the GI50 (SW-620) was > 100 µM (inactive) and the GI50 (T47D) was > 100 µM (inactive). The GI50 (U-251) was > 100 µM (inactive).

`CC(=O)Oc1c(C)c2c(O)c3c1C1=C(OCOC1=C(C)C3=O)/C(C)=C/C(C)(O)C(O)C(C)C(O)C1C(=O)OC(C(C)C1O)C(C)(O)/C=C\C=C(C)C(=O)N2` (centres undefined) was tested, and the GI50 (BT-549) was 19.7 µM (inactive), the GI50 (CAKI-1) was 17.1 µM (inactive) and the GI50 (COLO 205) was 86.5 µM (inactive). For the same compound, the GI50 (DU-145) was 45.4 µM (inactive), the GI50 (EKVX) was 10.7 µM (inactive) and the GI50 (HCC 2998) was 69.5 µM (inactive). For the same compound, the GI50 (HCT-15) was 48.9 µM, the GI50 (HOP-62) was 19.2 µM (inactive) and the GI50 (IGROV-1) was 5.66 µM (inactive). The GI50 (K562) was 21.7 µM (inactive), the GI50 (MDA-MB-231) was 21.5 µM (inactive) and the GI50 (MDA-N) was > 100 µM (inactive). For the same compound, the GI50 (MOLT-4) was 36.1 µM (inactive), the GI50 (NCI-H23) was 50.5 µM (inactive) and the GI50 (OVCAR-8) was 70 µM (inactive). For the same compound, the GI50 (SK-MEL-28) was 81.5 µM (inactive), the GI50 (SK-MEL-2) was 34.4 µM (inactive) and the GI50 (SW-620) was 63 µM (inactive). The GI50 (T47D) was > 100 µM (inactive) and the GI50 (U-251) was 39.7 µM (inactive).

For `Cc1ccc2[nH]/c(=N/S(=O)(=O)c3cc(C)c(Cl)cc3S)[nH]c2c1`, the GI50 (BT-549) was > 100 µM (inactive), the GI50 (CAKI-1) was 48.1 µM (inactive) and the GI50 (COLO 205) was 58.5 µM (inactive). The GI50 (DU-145) was > 100 µM (inactive), the GI50 (EKVX) was 31.9 µM (inactive) and the GI50 (HCC 2998) was > 100 µM (inactive). For the same compound, the GI50 (HCT-15) was 67.9 µM, the GI50 (HOP-62) was 34.8 µM (inactive) and the GI50 (IGROV-1) was 34.4 µM (inactive). The GI50 (K562) was 50.2 µM (inactive), the GI50 (MDA-MB-231) was > 100 µM (inactive) and the GI50 (MDA-N) was 87.5 µM (inactive). For the same compound, the GI50 (MOLT-4) was 25.6 µM (inactive), the GI50 (NCI-H23) was 66.2 µM (inactive) and the GI50 (OVCAR-8) was 93.1 µM (inactive). The GI50 (SK-MEL-28) was 45.7 µM (inactive), the GI50 (SK-MEL-2) was 78.3 µM (inactive) and the GI50 (SW-620) was 43.8 µM (inactive). For the same compound, the GI50 (T47D) was 44.9 µM (inactive) and the GI50 (U-251) was 24 µM (inactive).

For `COc1cc2c(cc1OC)-c1cc3cc(OC)c(OC)cc3c(C)[n+]1CC2.O=C([O-])CS(=O)(=O)O`, the GI50 (BT-549) was 41.7 µM (inactive), the GI50 (CAKI-1) was > 100 µM (inactive) and the GI50 (COLO 205) was 31.6 µM (inactive). The GI50 (DU-145) was > 100 µM (inactive), the GI50 (EKVX) was > 100 µM (inactive) and the GI50 (HCC 2998) was 19.3 µM (inactive). The GI50 (HCT-15) was greater than 100 µM, the GI50 (HOP-62) was > 100 µM (inactive) and the GI50 (IGROV-1) was 61.1 µM (inactive). The GI50 (MDA-MB-231) was > 100 µM (inactive), the GI50 (MDA-N) was 89.3 µM (inactive) and the GI50 (MOLT-4) was 9.51 µM (inactive). The GI50 (NCI-H23) was 35.4 µM (inactive), the GI50 (OVCAR-8) was > 100 µM (inactive) and the GI50 (SK-MEL-28) was > 100 µM (inactive). For the same compound, the GI50 (SK-MEL-2) was > 100 µM (inactive), the GI50 (SW-620) was > 100 µM (inactive) and the GI50 (T47D) was 2.82 µM (inactive). For the same compound, the GI50 (U-251) was 15 µM (inactive).

For `C1=CC(=[N+]2N=C(c3ccccc3)CC2c2ccccc2)C=CC1=C1SC(c2ccccc2)(c2ccccc2)c2ccccc21.[O-][Cl+3]([O-])([O-])[O-]` (centres undefined), the GI50 (BT-549) was 78.5 µM (inactive), the GI50 (DU-145) was > 100 µM (inactive) and the GI50 (EKVX) was > 100 µM (inactive). The GI50 (HCC 2998) was > 100 µM (inactive), the GI50 (HCT-15) was greater than 100 µM and the GI50 (HOP-62) was > 100 µM (inactive). For the same compound, the GI50 (IGROV-1) was > 100 µM (inactive), the GI50 (K562) was > 100 µM (inactive) and the GI50 (MDA-MB-231) was > 100 µM (inactive). For the same compound, the GI50 (MDA-N) was > 100 µM (inactive), the GI50 (MOLT-4) was > 100 µM (inactive) and the GI50 (NCI-H23) was > 100 µM (inactive). The GI50 (OVCAR-8) was > 100 µM (inactive), the GI50 (SK-MEL-28) was > 100 µM (inactive) and the GI50 (SK-MEL-2) was > 100 µM (inactive). For the same compound, the GI50 (SW-620) was > 100 µM (inactive), the GI50 (T47D) was > 100 µM (inactive) and the GI50 (U-251) was > 100 µM (inactive).

For `O=C(O)C(Cc1c[nH]c2ccccc12)N1C(=O)c2ccccc2C1=O` (centres undefined), the GI50 (BT-549) was > 100 µM (inactive), the GI50 (CAKI-1) was > 100 µM (inactive) and the GI50 (COLO 205) was > 100 µM (inactive). The GI50 (DU-145) was > 100 µM (inactive), the GI50 (EKVX) was > 100 µM (inactive) and the GI50 (HCC 2998) was > 100 µM (inactive). For the same compound, the GI50 (HCT-15) was greater than 100 µM, the GI50 (HOP-62) was > 100 µM (inactive) and the GI50 (IGROV-1) was 16.3 µM (inactive). The GI50 (MDA-MB-231) was > 100 µM (inactive), the GI50 (MDA-N) was > 100 µM (inactive) and the GI50 (NCI-H23) was > 100 µM (inactive). The GI50 (OVCAR-8) was 7.21 µM (inactive), the GI50 (SK-MEL-28) was > 100 µM (inactive) and the GI50 (SK-MEL-2) was > 100 µM (inactive). The GI50 (SW-620) was > 100 µM (inactive), the GI50 (T47D) was > 100 µM (inactive) and the GI50 (U-251) was > 100 µM (inactive).

With `COc1cc(C(c2c(O)c3ccccc3oc2=O)c2c(O)c3ccccc3oc2=O)ccc1O` the GI50 (BT-549) was 19.1 µM (inactive), the GI50 (CAKI-1) was 20.8 µM (inactive) and the GI50 (COLO 205) was 17.2 µM (inactive). For the same compound, the GI50 (DU-145) was 21.6 µM (inactive), the GI50 (EKVX) was 27.9 µM (inactive) and the GI50 (HCC 2998) was 18.9 µM (inactive). For the same compound, the GI50 (HCT-15) was 17.4 µM, the GI50 (HOP-62) was 44.4 µM (inactive) and the GI50 (IGROV-1) was 11.3 µM (inactive). The GI50 (K562) was 39.4 µM (inactive), the GI50 (MDA-MB-231) was 21.1 µM (inactive) and the GI50 (MDA-N) was 19.9 µM (inactive). The GI50 (MOLT-4) was 21.1 µM (inactive), the GI50 (NCI-H23) was 39 µM (inactive) and the GI50 (OVCAR-8) was 27.7 µM (inactive). The GI50 (SK-MEL-28) was 16.7 µM (inactive), the GI50 (SK-MEL-2) was 25.2 µM (inactive) and the GI50 (SW-620) was 23.7 µM (inactive). The GI50 (T47D) was 17.9 µM (inactive) and the GI50 (U-251) was 22.9 µM (inactive).
